Assay results as given in ChEMBL document CHEMBL4627310, “Design, synthesis and biological evaluation of 3-nitro-1,8-naphthalimides as potential antitumor agents” (Bioorg Med Chem Lett, 2020).
Activity calls are given as the source filed them. No cut-off for these calls is given here.

Legend:
T-24 [1] = experiment: Cell cycle arrest in human T24 cells assessed as accumulation at S phase at 4.13 uM measured after 24 hrs by propidium iodide staining based fluorescence analysis (reference value: 23.67%); type: functional
T-24 [2] = experiment: Induction of morphological changes in human T24 cells by AO/EB staining based assay; type: functional, cell-based
T-24 [3] = experiment: Antiproliferative activity against human T24 cells assessed as cell growth inhibition measured after 48 hrs by MTT assay; type: functional, cell-based; conditions: T-24, 48 h
HepG2 [4] = experiment: Anticancer activity against human HepG2 cells xenografted in mouse assessed as tumor growth inhibition by measuring T/C ratio at 15 mg/kg measured at day 14 relative to control; type: functional
T-24 [5] = experiment: Induction of apoptosis in human T24 cells assessed as pycnosis by AO/EB staining based assay; type: functional, cell-based
T-24 [6] = experiment: Induction of cell cycle arrest in human T24 cells assessed as upregulation of cyclin-B1 expression at 2 to 8 uM by Western blot analysis; type: functional, cell-based
T-24 [7] = experiment: Cell cycle arrest in human T24 cells assessed as accumulation at G1 phase at 2.06 uM measured after 24 hrs by propidium iodide staining based fluorescence analysis (reference value: 66.18%); type: functional
T-24 [8] = experiment: Induction of cell cycle arrest in human T24 cells assessed as upregulation of Wee1 expression at 2 to 8 uM by Western blot analysis; type: functional, cell-based
T-24 [9] = experiment: Cell cycle arrest in human T24 cells assessed as accumulation at S phase at 8.26 uM measured after 24 hrs by propidium iodide staining based fluorescence analysis (reference value: 23.67%); type: functional
DNA [10] = experiment: Induction of DNA damage in human T24 cells assessed as inhibition of DNA replication at 10 uM measured after 24 hrs by EdU incorporation assay; type: cell-based; conditions: T-24
T-24 [11] = experiment: Cell cycle arrest in human T24 cells assessed as accumulation at G2/M phase at 2.06 uM measured after 24 hrs by propidium iodide staining based fluorescence analysis (reference value: 10.16%); type: functional
T-24 [12] = experiment: Cell cycle arrest in human T24 cells assessed as accumulation at G1 phase at 8.26 uM measured after 24 hrs by propidium iodide staining based fluorescence analysis (reference value: 66.18%); type: functional
HepG2 [13] = experiment: Anticancer activity against human HepG2 cells xenografted in mouse assessed as tumor inhibition rate at 5 mg/kg measured at day 14 relative to control; type: functional; conditions: HepG2, 336 h
T-24 [14] = experiment: Anticancer activity against human T24 cells xenografted in mouse assessed as tumor inhibition rate at 15 mg/kg measured at day 14 relative to control; type: functional; conditions: T-24, 336 h
[15] = Toxicity in mouse xenografted with human T24 cells assessed as adverse effect at 5 to 15 mg/kg; type: organism-based, T-24; conditions: in vivo
L02 = experiment: Cytotoxicity against human HL7702 cells assessed as cell growth inhibition measured after 48 hrs by MTT assay; type: cell-based; conditions: L02, 48 h
T-24 [16] = experiment: Induction of apoptosis in human T24 cells assessed as live cells at 2.06 uM by AnnexinV/propidium iodide staining based flow cytometry (reference value: 99.1%); type: functional
T-24 [17] = experiment: Anticancer activity against human T24 cells xenografted in mouse assessed as tumor growth inhibition by measuring T/C ratio at 5 mg/kg measured at day 14 relative to control; type: functional
[18] = Toxicity in mouse xenografted with human T24 cells assessed as effect on body weight at 5 to 15 mg/kg; type: organism-based, T-24; conditions: in vivo
SK-OV-3 = experiment: Antiproliferative activity against human SKOV3 cells assessed as cell growth inhibition measured after 48 hrs by MTT assay; type: functional, cell-based; conditions: SK-OV-3, 48 h
T-24 [19] = experiment: Induction of apoptosis in human T24 cells assessed as upregulation of cytosolic cytochrome-C expression at 2 to 8 uM by Western blot analysis; type: functional, cell-based
T-24 [20] = experiment: Induction of apoptosis in human T24 cells assessed as membrane blebbing by AO/EB staining based assay; type: functional, cell-based
T-24 [21] = experiment: Cell cycle arrest in human T24 cells assessed as accumulation at S phase at 2.06 uM measured after 24 hrs by propidium iodide staining based fluorescence analysis (reference value: 23.67%); type: functional
T-24 [22] = experiment: Anticancer activity against human T24 cells xenografted in mouse assessed as tumor inhibition rate at 5 mg/kg measured at day 14 relative to control; type: functional; conditions: T-24, 336 h
HepG2 [23] = experiment: Anticancer activity against human HepG2 cells xenografted in mouse assessed as tumor inhibition rate at 15 mg/kg measured at day 14 relative to control; type: functional; conditions: HepG2, 336 h
T-24 [24] = experiment: Anticancer activity against human T24 cells xenografted in mouse assessed as tumor growth inhibition by measuring T/C ratio at 15 mg/kg measured at day 14 relative to control; type: functional
DNA [25] = experiment: Induction of Escherichia coli supercoiled circular pBR322 DNA cleavage at 20 to 100 uM by gel electrophoresis mobility shift assay; type: nucleic-acid assay
T-24 [26] = experiment: Cell cycle arrest in human T24 cells assessed as accumulation at G2/M phase at 4.13 uM measured after 24 hrs by propidium iodide staining based fluorescence analysis (reference value: 10.16%); type: functional

For `CNCCN1C(=O)c2cccc3cc([N+](=O)[O-])cc(c23)C1=O`, the Activity (T-24 [1]) was 7.99%, the Activity (T-24 [2]) was “Active” and the IC50 (T-24 [3]) was 4.13 µM. For the same compound, the T/C (HepG2 [4]) was 38.6%, the Activity (T-24 [5]) was “Active” and the Activity (T-24 [6]) was “Active”. The Activity (T-24 [7]) was 50.17%, the Activity (T-24 [8]) was “Active” and the Activity (T-24 [9]) was 7.71%. The Activity (DNA [10]) was “Active”, the Activity (T-24 [11]) was 30.01% and the Activity (T-24 [12]) was 0.05%. The inhibition in vivo at 5 mg/kg (HepG2 [13]) was 26.8%, the inhibition in vivo at 15 mg/kg (T-24 [14]) was 58.7% and the Activity [15] was “Non-Toxic”. For the same compound, the IC50 (L02) was 18.7 µM, the Activity (T-24 [16]) was 98.8% and the T/C (T-24 [17]) was 62.9%. The Activity [18] was “Non-Toxic”, the IC50 (SK-OV-3) was 20.7 µM and the Activity (T-24 [19]) was “Active”. For the same compound, the Activity (T-24 [20]) was “Active”, the Activity (T-24 [21]) was 19.81% and the inhibition in vivo at 5 mg/kg (T-24 [22]) was 30.1%. The inhibition in vivo at 15 mg/kg (HepG2 [23]) was 60%, the T/C (T-24 [24]) was 38.4% and the Activity (DNA [25]) was “inactive”. For the same compound, the Activity (T-24 [26]) was 82.11%.
